Data as given in US6495592B1, “Tracheal smooth muscle relaxants” (Nippon Suisan Kaisha, Ltd., priority 1996, dated 2002).

How the values were obtained:
rats = conditions: male, rat, in vivo
Method: Toxicity test was conducted only for the Compounds 11, 43 and 80 by means of a single oral administration to rats.
Animals used: three males

tracheal smooth muscle = test: Dilating action to contraction of tracheal smooth muscle (potassium chloride-induced contraction of isolated trachea segment, Magnus tube); assay type: cell-based; conditions: Cavia porcellus; 30 μM test substance; contraction induced by 72.7 mM potassium chloride; guinea pig (Hartley, male) trachea segment; read-out: Activity (suppressing rate for contraction by potassium chloride)
Method: Each sample is tested by using two segment obtained from one animal; the trachea was removed from a guinea pig (Hartley, male, seven weeks age) and was made the segment, 6 mm in length. The segment was suspended in a Magnus tube containing a physiological salt solution of 37° C. with a flow of mixed gas consisting of 95% oxygen and 5% carbon dioxide gas. A base-line tension of 1 g was applied to the segment and, after tension of the sample became stable, the solution was exchanged with a solution containing 72.7 mM of potassium chloride to induce a contraction. When tension of the contraction by potassium chloride became stable, a compound of the formula (1) was added as a test substance to measure the change in the tension. The test substance was dissolved in dimethyl sulfoxide and added thereto. Incidentally, at the stage of addition, the final concentration of dimethyl sulfoxide was made not more than 0.3%. Changes in the tension was recorded on a recorder (R-64V, Rika Denki) after introducing to an amplifier for strain pressure (AP-621G, Nippon Koden Kogyo) via an FD pickup transducer (TB-611T, Nippon Koden Kogyo). Tension before addition of potassium chloride was set as 0 while that after addition of potassium chloride was set as 100 and the suppressing rate for contraction by potassium chloride after addition of the test substance was expressed by a relative percentage whereby the activity was determined according to the following criteria.
The Compound No. in the table is the same as that in the Production Examples.

Q: Which results are given for `O=C1Cc2ccccc2Oc2cc(O)cc(O)c21` [Compound 11, 7,9-dihydroxy-10,11-dihydrodibenz[b,f]oxepin-10-one]?
A: minimum lethal dose (rats): not less than 2,000 mg/kg; inhibition at 30 µM (tracheal smooth muscle): ≥ 50%

Q: For `O=C1Cc2ccccc2Sc2cc(O)c(O)cc21` [Compound 43, 7,8-dihydroxy-10,11-dihydrodibenzo[b,f]thiepin-10-one], which minimum lethal dose (rats) is on record?
A: Its minimum lethal dose is “not less than 2,000 mg/kg”.

Q: `O=C1Cc2ccccc2Sc2cc(O)cc(O)c21` [Compound 80, 7,9-dihydroxy-10,11-dihydrodibenzo[b,f]thiepin-10-one] was tested. Which minimum lethal dose (rats) did it give?
A: Its minimum lethal dose is “not less than 2,000 mg/kg”.

Q: What about the inhibition at 30 µM (tracheal smooth muscle) of the same molecule?
A: The inhibition at 30 µM was ≥ 50%.

Q: How did the inhibition at 30 µM (tracheal smooth muscle) turn out when `CCc1ccc2c(c1)CC(=O)c1c(O)cc(O)cc1O2` [Compound 112, 2-ethyl-7,9-dihydroxy-10,11-dihydrodibenzo[b,f]oxepin-10-one] was run?
A: The inhibition at 30 µM was ≥ 50%.

Q: For `O=C1Cc2cc(C#CCO)ccc2Oc2cc(O)cc(O)c21` [Compound 114], which inhibition at 30 µM (tracheal smooth muscle) is on record?
A: Its inhibition at 30 µM is ≥ 50%.

Q: With `O=C1Cc2cc(C#CCCO)ccc2Oc2cc(O)cc(O)c21` [Compound 115, 2-(4-hydroxy-1-butynyl)-7,9-dihydroxy-10,11-dihydrodibenzo[b,f]oxepin-10-one] as the molecule, how does the inhibition at 30 µM (tracheal smooth muscle) read?
A: Its inhibition at 30 µM is ≥ 50%.

Q: With `O=C1Cc2cc(C#CCCCO)ccc2Oc2cc(O)cc(O)c21` [Compound 116, 2-(5-hydroxy-1-pentynyl)-7,9-dihydroxy-10,11-dihydrodibenzo[b,f]oxepin-10-one] as the molecule, how does the inhibition at 30 µM (tracheal smooth muscle) read?
A: The inhibition at 30 µM was ≥ 50%.
